Where two headings read alike, the source gives them in different places.
Assays:
[1] = tested on: Beet Armyworm (Spodoptera exigua) ("BAW"), second instar larvae; assay: Bioassay on beet armyworm (BAW), 128-well diet tray assay; assay type: in vivo; conditions: for pest or weed control at 50 µg/cm2: Spodoptera exigua
Summary of the method: (§1)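 Mortality (%) is scored well by well after five to seven days at 25° C. on a 14:10 light:dark regime. The value given is the mean of eight wells.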

[2] = tested on: Cabbage Looper (Trichoplusia ni) ("CL"), second instar larvae; assay: Bioassay on cabbage looper (CL), 128-well diet tray assay; assay type: in vivo; conditions: for pest or weed control at 50 µg/cm2: Trichoplusia ni
Summary of the method: as §1

[3] = read-out: BAW (Biological Results, rating)
[4] = read-out: CL (Biological Results, rating)

## COC(C)c1ccc(C)cc1N1C(=O)CS/C1=N\C(=O)Nc1ccc(-c2noc(-c3ccc(OC(F)(F)F)cc3)n2)cc1F (stereo not drawn) [Compound J426, (Z)-1-(2-Fluoro-4-(5-(4-(trifluoromethoxy)phenyl)-1,2,4-oxadiazol-3-yl)phenyl)-3-(3-(2-(1-methoxyethyl)-5-methylphenyl)-4-oxothiazolidin-2-ylidene)urea]
[1]; read-out: BAW rating
  pest or weed control at 50 µg/cm2: 50 to 100%
[2]; read-out: CL rating
  pest or weed control at 50 µg/cm2: 50 to 100%

## CCOC(C)c1ccc(C)cc1N1C(=O)CS/C1=N\C(=O)Nc1ccc(-c2ncn(-c3ccc(OC(F)(F)F)cc3)n2)cc1O (stereo not drawn) [Compound J179, (Z)-1-(3-(2-(1-Ethoxyethyl)-5-methylphenyl)-4-oxothiazolidin-2-ylidene)-3-(2-hydroxy-4-(1-(4-(trifluoromethoxy)phenyl)-1H-1,2,4-triazol-3-yl)phenyl)urea]
[1]; [3]
  pest or weed control at 50 µg/cm2: 50 to 100%
[2]; [4]
  pest or weed control at 50 µg/cm2: 50 to 100%

## CC(C)c1ccc(N(C)C)cc1N1C(=O)CS/C1=N\C(=O)Nc1ccc(-c2nc(-c3ccc(OC(F)(F)F)cc3)no2)cc1F [Compound J435, (Z)-1-(3-(5-(dimethylamino)-2-isopropylphenyl)-4-oxothiazolidin-2-ylidene)-3-(2-fluoro-4-(3-(4-(trifluoromethoxy)phenyl)-1,2,4-oxadiazol-5-yl)phenyl)urea]
[1]; read-out: BAW rating
  pest or weed control at 50 µg/cm2: 50 to 100%
[2]; read-out: CL rating
  pest or weed control at 50 µg/cm2: 50 to 100%

## O=C(/N=C1\SCC(=O)N1c1ccccc1N1CCCCC1)Nc1ccc(-c2ncn(-c3ccc(OC(F)(F)F)cc3)n2)cc1F [Compound J198, (Z)-1-(2-Fluoro-4-(1-(4-(trifluoromethoxy)phenyl)-1H-1,2,4-triazol-3-yl)phenyl)-3-(4-oxo-3-(2-(piperidin-1-yl)phenyl)thiazolidin-2-ylidene)urea]
[1]; [3]
  pest or weed control at 50 µg/cm2: 50 to 100%
[2]; [4]
  pest or weed control at 50 µg/cm2: 50 to 100%

## COc1cc(-c2ncn(-c3ccc(OC(F)(F)F)cc3)n2)ccc1NC(=O)/N=C1\SCC(=O)N1c1cc(N(C)C)ccc1OCCC(F)(F)F [Compound J109, (Z)-1-(3-(5-(Dimethylamino)-2-(3,3,3-trifluoropropoxy)phenyl)-4-oxothiazolidin-2-ylidene)-3-(2-methoxy-4-(1-(4-(trifluoromethoxy)phenyl)-1H-1,2,4-triazol-3-yl)phenyl)urea]
[1]; [3]
  pest or weed control at 50 µg/cm2: 50 to 100%
[2]; [4]
  pest or weed control at 50 µg/cm2: 50 to 100%

## COC(C)c1ccc(C)cc1N1C(=O)CS/C1=N\C(=O)Nc1ccc(-c2cn(-c3ccc(S(F)(F)(F)(F)F)cc3)cn2)cc1F (stereo not drawn) [Compound J591, (Z)-1-(2-Fluoro-4-(1-(4-(pentafluoro-λ^6-sulfaneyl)phenyl)-1H-imidazol-4-yl)phenyl)-3-(3-(2-(1-methoxyethyl)-5-methylphenyl)-4-oxothiazolidin-2-ylidene)urea]
[1]; read-out: BAW rating
  pest or weed control at 50 µg/cm2: 50 to 100%
[2]; read-out: CL rating
  pest or weed control at 50 µg/cm2: 50 to 100%

## COCc1ccc(N(C)C)cc1N1C(=O)CS/C1=N\C(=O)Nc1ccc(-c2ncn(-c3ccc(S(=O)(=O)C(F)(F)F)cc3)n2)cc1F [Compound J671, (Z)-1-(3-(5-(Dimethylamino)-2-(methoxymethyl)phenyl)-4-oxothiazolidin-2-ylidene)-3-(2-fluoro-4-(1-(4-((trifluoromethyl)sulfonyl)phenyl)-1H-1,2,4-triazol-3-yl)phenyl)urea]
[1]; read-out: BAW rating
  pest or weed control at 50 µg/cm2: 50 to 100%
[2]; read-out: CL rating
  pest or weed control at 50 µg/cm2: 50 to 100%

## Cc1cc(-c2ncn(-c3ccc(C(F)(F)F)cn3)n2)ccc1NC(=O)/N=C1\SCC(=O)N1c1cc(N(C)C)ccc1C(C)C [Compound J285, (Z)-1-(3-(5-(Dimethylamino)-2-isopropylphenyl)-4-oxothiazolidin-2-ylidene)-3-(2-methyl-4-(1-(5-(trifluoromethyl)pyridin-2-yl)-1H-1,2,4-triazol-3-yl)phenyl)urea]
[1]; [3]
  pest or weed control at 50 µg/cm2: 50 to 100%
[2]; [4]
  pest or weed control at 50 µg/cm2: 50 to 100%

## Cc1ccc(OCCC(F)(F)F)c(N2C(=O)CS/C2=N\C(=O)Nc2ccc(-c3ncn(-c4ccc(S(=O)(=O)C(F)(F)F)cc4)n3)cc2C#N)c1 [Compound J402, (Z)-1-(2-cyano-4-(1-(4-((trifluoromethyl)sulfonyl)phenyl)-1H-1,2,4-triazol-3-yl)phenyl)-3-(3-(5-methyl-2-(3,3,3-trifluoropropoxy)phenyl)-4-oxothiazolidin-2-ylidene)urea]
[1]; read-out: BAW rating
  pest or weed control at 50 µg/cm2: 50 to 100%
[2]; read-out: CL rating
  pest or weed control at 50 µg/cm2: 50 to 100%

## CCC(C)c1ccc(OC)cc1N1C(=O)CS/C1=N\C(=O)Nc1ccc(-c2ncn(-c3ccc(OC(F)(F)F)cc3)n2)cc1F (stereo not drawn) [Compound J48, (Z)-1-(3-(2-(sec-Butyl)-5-methoxyphenyl)-4-oxothiazolidin-2-ylidene)-3-(2-fluoro-4-(1-(4-(trifluoromethoxy)phenyl)-1H-1,2,4-triazol-3-yl)phenyl)urea]
[1]; [3]
  pest or weed control at 50 µg/cm2: 50 to 100%
[2]; [4]
  pest or weed control at 50 µg/cm2: 50 to 100%

## Cc1ccc(COCC(F)(F)F)c(N2C(=O)CS/C2=N\C(=O)Nc2ccc(-c3ncn(-c4ccc(OC(F)(F)F)cc4)n3)cc2O)c1 [Compound J178, (Z)-1-(2-Hydroxy-4-(1-(4-(trifluoromethoxy)phenyl)-1H-1,2,4-triazol-3-yl)phenyl)-3-(3-(5-methyl-2-((2,2,2-trifluoroethoxy)methyl)phenyl)-4-oxothiazolidin-2-ylidene)urea]
[1]; [3]
  pest or weed control at 50 µg/cm2: 50 to 100%
[2]; [4]
  pest or weed control at 50 µg/cm2: 50 to 100%

## CCCc1ccc(C)cc1N1C(=O)CS/C1=N\C(=O)Nc1ccc(-c2ncn(-c3ccc(S(F)(F)(F)(F)F)cc3)n2)cc1C#N [Compound J583, (Z)-1-(2-Cyano-4-(1-(4-(pentafluoro-λ^6-sulfaneyl)phenyl)-1H-1,2,4-triazol-3-yl)phenyl)-3-(3-(5-methyl-2-propylphenyl)-4-oxothiazolidin-2-ylidene)urea]
[1]; read-out: BAW rating
  pest or weed control at 50 µg/cm2: 50 to 100%
[2]; read-out: CL rating
  pest or weed control at 50 µg/cm2: 50 to 100%

## O=C(/N=C1\SCC(=O)N1c1cc(F)ccc1COCC(F)(F)F)Nc1ccc(-c2ncn(-c3ccc(S(=O)(=O)C(F)(F)F)cc3)n2)cc1F [Compound J670, (Z)-1-(3-(5-Fluoro-2-((2,2,2-trifluoroethoxy)methyl)phenyl)-4-oxothiazolidin-2-ylidene)-3-(2-fluoro-4-(1-(4-((trifluoromethyl)sulfonyl)phenyl)-1H-1,2,4-triazol-3-yl)phenyl)urea]
[1]; read-out: BAW rating
  pest or weed control at 50 µg/cm2: 50 to 100%
[2]; read-out: CL rating
  pest or weed control at 50 µg/cm2: 50 to 100%

## Cc1ccc(COCC(F)(F)F)c(N2C(=O)CS/C2=N\C(=O)Nc2ccc(-n3cnc(-c4ccc(OC(F)(F)F)cc4)n3)cc2C)c1 [Compound J442, (Z)-1-(3-(5-Methyl-2-((2,2,2-trifluoroethoxy)methyl)phenyl)-4-oxothiazolidin-2-ylidene)-3-(2-methyl-4-(3-(4-(trifluoromethoxy)phenyl)-1H-1,2,4-triazol-1-yl)phenyl)urea]
[1]; read-out: BAW rating
  pest or weed control at 50 µg/cm2: 50 to 100%
[2]; read-out: CL rating
  pest or weed control at 50 µg/cm2: 50 to 100%

## O=C(/N=C1\SCC(=O)N1c1cc(F)ccc1COCC(F)(F)F)Nc1ccc(-n2cnc(-c3ccc(C(F)(F)F)cc3)n2)cc1F [Compound J699, (Z)-1-(3-(5-Fluoro-2-((2,2,2-trifluoroethoxy)methyl)phenyl)-4-oxothiazolidin-2-ylidene)-3-(2-fluoro-4-(3-(4-(trifluoromethyl)phenyl)-1H-1,2,4-triazol-1-yl)phenyl)urea]
[1]; read-out: BAW rating
  pest or weed control at 50 µg/cm2: 50 to 100%
[2]; read-out: CL rating
  pest or weed control at 50 µg/cm2: 50 to 100%

## Cc1ccc(COCC(Cl)(Cl)Cl)c(N2C(=O)CS/C2=N\C(=O)Nc2ccc(-c3ncn(-c4ccc(OC(F)(F)F)cc4)n3)cc2C)c1 [Compound J459]
[1]; Table ABC, species BAW, C = not tested, D = no activity noticed
  BAW rating: A (50-100)
[2]; Table ABC, species CL, C = not tested, D = no activity noticed
  CL rating: A (50-100)

## CC(C)c1cc(F)c(N(C)C)cc1N1C(=O)CS/C1=N\C(=O)Nc1ccc(-c2ncn(-c3ccc(SC(F)(F)F)cc3)n2)cc1 [Compound J389, (Z)-1-(3-(5-(Dimethylamino)-4-fluoro-2-isopropylphenyl)-4-oxothiazolidin-2-ylidene)-3-(4-(1-(4-((trifluoromethyl)thio)phenyl)-1H-1,2,4-triazol-3-yl)phenyl)urea]
[1]; read-out: BAW rating
  pest or weed control at 50 µg/cm2: 50 to 100%
[2]; read-out: CL rating
  pest or weed control at 50 µg/cm2: 50 to 100%

## CC(C)c1ccc(N(C)C)cc1N1C(=O)CS/C1=N\C(=O)Nc1ccc(-n2cnc(-c3ccc(OC(F)(F)F)cc3)n2)cc1 [Compound J408, (Z)-1-(3-(5-(Dimethylamino)-2-isopropylphenyl)-4-oxothiazolidin-2-ylidene)-3-(4-(3-(4-(trifluoromethoxy)phenyl)-1H-1,2,4-triazol-1-yl)phenyl)urea]
[1]; read-out: BAW rating
  pest or weed control at 50 µg/cm2: 50 to 100%
[2]; read-out: CL rating
  pest or weed control at 50 µg/cm2: 50 to 100%

## COC(C)c1ccc(C)cc1N1C(=O)CS/C1=N\C(=O)Nc1ccc(-c2ncn(-c3ccc(S(=O)(=O)C(F)(F)F)cc3)n2)cc1F (stereo not drawn) [Compound J361, (Z)-1-(2-Fluoro-4-(1-(4-((trifluoromethyl)sulfonyl)phenyl)-1H-1,2,4-triazol-3-yl)phenyl)-3-(3-(2-(1-methoxyethyl)-5-methylphenyl)-4-oxothiazolidin-2-ylidene)urea]
[1]; read-out: BAW rating
  pest or weed control at 50 µg/cm2: 50 to 100%
[2]; read-out: CL rating
  pest or weed control at 50 µg/cm2: 50 to 100%

## CCc1cc(-c2ncn(-c3ccc(OC(F)(F)F)cc3)n2)ccc1NC(=O)/N=C1\SCC(=O)N1c1cc(NC)ccc1C(C)C [Compound J157, (Z)-1-(2-Ethyl-4-(1-(4-(trifluoromethoxy)phenyl)-1H-1,2,4-triazol-3-yl)phenyl)-3-(3-(2-isopropyl-5-(methylamino)phenyl)-4-oxothiazolidin-2-ylidene)urea]
[1]; [3]
  pest or weed control at 50 µg/cm2: 50 to 100%
[2]; [4]
  pest or weed control at 50 µg/cm2: 50 to 100%

## COC(c1ccc(C)cc1N1C(=O)CS/C1=N\C(=O)Nc1ccc(-c2cn(-c3ccc(S(F)(F)(F)(F)F)cc3)cn2)cc1C)C(F)(F)F (stereo not drawn) [Compound J617, (Z)-1-(3-(5-Methyl-2-(2,2,2-trifluoro-1-methoxyethyl)phenyl)-4-oxothiazolidin-2-ylidene)-3-(2-methyl-4-(1-(4-(pentafluoro-λ^6-sulfaneyl)phenyl)-1H-imidazol-4-yl)phenyl)urea]
[1]; read-out: BAW rating
  pest or weed control at 50 µg/cm2: 50 to 100%
[2]; read-out: CL rating
  pest or weed control at 50 µg/cm2: 50 to 100%

Reference: US20230077362A1 (CORTEVA AGRISCIENCE LLC, priority 2019, published 2023)
